Data: PMC12616682, “Identification of a Highly Cooperative PROTAC Degrader Targeting GTP-Loaded KRAS(On) Alleles” (Journal of the American Chemical Society, 2025)
Where two headings read alike, the source gives them in different places.

Tests used:
[1] = target: T1, HiBiT-KRAS^G12R in Cal-62 cells (Homo sapiens, UniProt P01116, G12R); assay: Kinetic degradation (live mode), Cal-62 HiBiT KRAS^G12R cells; type: cell-based; conditions: Cal62-HiBit (G12R)
T1 construct: generated a HiBiT-KRAS^G12R Cal-62 knock-in cell line using the CRISPR Cas9 technology; endogenous in cells; host or cells: Cal-62 HiBiT KRAS G12R (in-house CRISPR knock-in)

KRAS^Q61L in SW948 cells = target: T2, KRAS^Q61L in SW948 cells (Homo sapiens, UniProt P01116, Q61L); assay: Endogenous KRAS degradation by Western blot in SW948 cells; type: cell-based
T2 construct: host or cells: SW948

[2] = target: T3, KRAS^G12R in Cal-62 cells (Homo sapiens, UniProt P01116, G12R); assay: Endogenous KRAS degradation by Western blot in Cal-62 cells; type: cell-based; conditions: Cal-62 (G12R)
T3 construct: Potent degradation of endogenous KRAS^G12R was achieved by ACBI4 in the Cal-62 cell line; host or cells: Cal-62

[3] = target: T4, KRAS^Q61K in Calu-6 cells (Homo sapiens, UniProt P01116, Q61K); assay: Endogenous KRAS degradation by Western blot in Calu-6 cells; type: cell-based; conditions: Calu-6 (Q61K)
T4 construct: host or cells: Calu-6

[4] = target: T5, HiBiT-KRAS^G12D in GP5d cells (Homo sapiens, UniProt P01116, G12D); assay: HiBiT degradation assay, HiBiT-KRAS^G12D GP5d cells; type: cell-based; conditions: for Dmax / DC50: Gp5D (HiBit-G12D)
T5 construct: host or cells: GP5d HiBiT KRAS G12D

KRAS^G12R in KP-2 cells = target: T6, KRAS^G12R in KP-2 cells (Homo sapiens, UniProt P01116, G12R); assay: Endogenous KRAS degradation by Western blot in KP-2 cells; type: cell-based; conditions: KP-2 (G12R)
T6 construct: host or cells: KP-2

[5] = target: T1, HiBiT-KRAS^G12R in Cal-62 cells; assay: HiBiT degradation assay, HiBiT-KRAS^G12R Cal-62 cells; type: cell-based; conditions: Cal-62 (HiBitG12R)
Procedure: (Gibco) with 10% FBS in a humidiﬁed cell incubator at 37 °C and 5% CO2.
Plasmids pSpCas9 BB-2A-GFP (PX458) containing gRNA, Cas9 and GFP sequences and […] plasmid containing ssDNA donor template were purchased from Genscript. Cal-62 cells were plated at 5x10^5 cells in a 6-well plate and left to adhere overnight. The next day, the transfection plasmids (0.5 µg of each gRNA plasmid and 0.5 µg of donor template) were diluted in Opti-MEM, combined with Lipofectamine solution in Opti-mem according to the manufacturer’s protocol and incubated for 20 min at RT. The mixture was added to the cells and incubated for 24 h. The next day the media was exchanged, and the cells were left to incubate for another 24 h. GFP positive cells were single-cell sorted into 96-well plates using ﬂuorescence-activated cell sorting (FACS) at the Flow Cytometry and Cell Sorting Facility (University of Dundee). Sorted cells were left to grow in conditioned media supplemented with 20% FBS for 3 weeks. Formed colonies were tested for the expression of HiBiT KRAS using the Nano-Glo® HiBiT Lytic system (Promega). The positive clones were additionally tested for insertion of the HiBiT tag by western blotting for KRAS (mouse anti-KRAS, LsBio) and HiBiT (mouse anti-HiBiT, Promega) and the insert was further conﬁrmed by Sanger sequencing. […]
gRNA1: 5’ […] 3’, gRNA2: 5’ […] 3’, gRNA 3: 5’ […]
template DNA: 5’ caatccagctt tatttgacac tcattctctc aactctcatc tgattcttac tgttaatatt tatccaagag aactactgcc atgatgcttt aaaagttttt ctgtagctgt tgcatattga cttctaacac ttagaggtgg gggtccacta ggaaaactgt aacaataaga gtggagatag ctgtcagcaa cttttgtgag ggtgtgctac agggtgtaga gcactgtgaa gtctctacat gagtgaagtc atgatatgat cctttgagag cctttagccg ccgcagaaca gcagtctggc tatttagata gaacaacttg attttaagat aaaagaactg tctatgtagc atttatgcat ttttcttaag cgtcgatgga ggagtttgta aatgaagtac agttcattac gatacacgtc tgcagtcaac tggaattttc atgattgaat tttgtaaggt attttgaaat aatttttcat ataaaggtga gtttgtatta aaaggtactg gtggagtatt tgatagtgta ttaaccttat gtgtgacatg ttctaatata gtcacatttt cattattttt attataaggc ctgctgaaa […]
atg[…]act gaGtaCaaGctCgtAgtagttggag ctCgtggc gta ggc aag agt gcc ttA acAatCcaActaattcagaatcat tttgtggacg aatatgatcc aacaatagag gtaaatcttg ttttaatatg catattactg gtgcaggacc attctttgat acagataaag gtttctctga ccattttcat gagtacttat tacaagataa ttatgctgaa agttaagtta tctgaaatgt accttgggtt tcaagttata tgtaaccatt aatatgggaa ctttactttc cttgggagta tgtcagggtc catgatgttc actctctgtg cattttgatt ggaagtgtat ttcagagttt cgtgagaggg tagaaatttg tatcctatct ggacctaaaa gacaatcttt ttattgtaac ttttattttt atgggtttct tggtattgtg acatcatatg taaaggttag atttaattgt actagtgaaa tataattgtt tgatggttga tttttttaaa cttcatcagc agtattttcc tatcttcttc tcaacattag agaacctaca actaccggat aaattttaca aaatgaatta tttgcctaag gtgtggttta tataaaggta ctattaccaa ctttaccttt gctttgttgt catttttaaa tttactcaag gaaatactag gatttaaaaa aaaattcctt 3’
Degradation via Detection of Split Nanoluciferase (HiBiT)
To assess PROTAC-mediated degradation of HiBiT-tagged KRAS constructs, cells were seeded at […]
further incubated at 37 °C for 4 and 24 h. Following incubation, 20 µL per well of Promega Nano-Glo® HiBiT lytic detection reagent mix (Promega Nano-Glo® HiBiT Lytic Detection System […]
plotted as percent of DMSO control.

Cal-62 cells = assay: CellTiter-Glo anti-proliferation, Cal-62; type: cell-based, human; conditions: Homo sapiens, 72 h; Cal-62 (G12R); read-out: CTG 72h Ic50
KRAS^G12D in GP5d cells = target: T7, KRAS^G12D in GP5d cells (Homo sapiens, UniProt P01116, G12D); assay: Endogenous KRAS degradation by Western blot in GP5d cells; type: cell-based
T7 construct: comparison of the degradative effect on endogenous KRAS; host or cells: GP5d

Calu-6 cells = assay: CellTiter-Glo anti-proliferation, Calu-6; type: cell-based, human; conditions: Calu-6 (Q61K)

- 1/K (Tau) [1]: 1.972 µM
- Plateau (degradation rate) [1]: 0.2614 min⁻¹
- Plateu/ Tau [1]: 2207 M⁻¹ s⁻¹
- Dc50 4h (KRAS^Q61L in SW948 cells; 4 h): unstable
- Dmax (KRAS^Q61L in SW948 cells; 4 h, read-out: DMax 4h): 49%
- Dc50 18h (KRAS^Q61L in SW948 cells; 18 h): unstable
- Dmax (KRAS^Q61L in SW948 cells; 18 h, read-out: DMax 18h): 50%
- Dmax ([2]; 4 h, read-out: DMax 4h): 64%
- DC50 ([2]; 4 h, read-out: Dc50 4h): 1530 nM
- Dmax ([2]; 18 h, read-out: DMax 18h): 93%
- DC50 ([2]; 18 h, read-out: Dc50 18h): 418 nM
- Dmax ([3]; 4 h, read-out: DMax 4h): 25%
- DC50 ([3]; 4 h, read-out: Dc50 4h): 146 nM
- Dmax ([3]; 18 h, read-out: DMax 18h): 72%
- DC50 ([3]; 18 h, read-out: Dc50 18h): 187 nM
- Dmax ([4]; 4 h, read-out: DMax 4h): 83%
- DC50 ([4]; 4 h, read-out: Dc50 4h): 14 nM
- Dmax ([4]; 24 h, read-out: DMax 24h): 94%
- DC50 ([4]; 24 h, read-out: Dc50 24h): 4 nM
- fold improvement in DC50 over 3 ([4]; HiBiT-KRAS^G12D, 24 h): ~9 fold
- Dmax (KRAS^G12R in KP-2 cells; 4 h, read-out: DMax 4h): 37%
- DC50 (KRAS^G12R in KP-2 cells; 4 h, read-out: Dc50 4h): 6 nM
- Dmax (KRAS^G12R in KP-2 cells; 18 h, read-out: DMax 18h): 70%
- DC50 (KRAS^G12R in KP-2 cells; 18 h, read-out: Dc50 18h): 224 nM
- Dmax ([5]; 4 h, read-out: DMax 4h): 76%
- DC50 ([5]; 4 h, read-out: Dc50 4h): 163 nM
- Dmax ([5]; 24 h, read-out: DMax 24h): 87%
- DC50 ([5]; 24 h, read-out: Dc50 24h): 183 nM
- Dmax (KRAS^G12D in GP5d cells; 4 h, read-out: DMax 4h): 83.5%
- DC50 (KRAS^G12D in GP5d cells; 4 h, read-out: Dc50 4h): 68 nM
- Dmax (KRAS^G12D in GP5d cells; 18 h, read-out: DMax 18h): 96.5%
- DC50 (KRAS^G12D in GP5d cells; 18 h, read-out: Dc50 18h): 16 nM
Compound: CC(C)C(C(=O)N1C[C@H](O)C[C@H]1C(=O)NCc1ccc2cnn(C)c2c1)n1nnc2c1CCC(CCCN1CCCN(c3nccc(-c4noc([C@@]5(C)CCCc6sc(N)c(C#N)c65)n4)n3)[C@@H](C)C1)C2 (mixture of isomers) [Compound 4]
- IC50 (Cal-62 cells): 488 nM
- CTG 72h Ic50 (Calu-6 cells): unstable
